Experimental data: PubChem BioAssay (NCI)
“And” between values parts separate entries of the source, which are not always exact repeats. Equal values may be shown once.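 Step 1: Grow cells in 96-well plates. Step 2: Expose to compound for 48 hours at 5 concentrations. Step 3: Interpolate endpoints linearly; if unreached, use highest concentration. Abbreviation: GI50, concentration required for 50% inhibition of growth. TGI: total growth inhibition.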

Legend:
Assay in all cases: growth of human tumour cells (NCI), 48 h
[1] = tested on: KM12 colon
[2] = tested on: MALME-3M melanoma
[3] = tested on: MDA-MB-435
[4] = tested on: NCI/ADR-RES ovarian
[5] = tested on: SF-268 CNS
[6] = tested on: TK-10 renal
[7] = tested on: T-47D breast
[8] = tested on: LOX IMVI melanoma
[9] = tested on: SNB-19 CNS
[10] = tested on: HT29 colon

`N#Cc1c(N2CCOCC2)nc(=S)[nH]c1-c1ccccc1` gave a GI50 [1] of 35 µM, a TGI [1] greater than 100 µM and a GI50 [2] of 5.19 µM. It also gave a TGI [2] of 58.9 µM, a GI50 [3] of 29.7 µM and a TGI [3] greater than 100 µM. It also gave a GI50 [4] of 53.4 µM, a TGI [4] greater than 100 µM and a GI50 [5] of 33.5 µM. It also gave a TGI [5] greater than 100 µM, a GI50 [6] of 20.7 µM and a TGI [6] greater than 100 µM. The GI50 [7] was 4.15 µM, the TGI [7] was greater than 100 µM and the GI50 [8] was 23.5 µM. It also gave a TGI [8] greater than 100 µM, a GI50 [9] of 89.9 µM and a TGI [9] greater than 100 µM. For the same molecule, the GI50 [10] was 33.5 µM and the TGI [10] was greater than 100 µM.
With `N#Cc1c(N)n2c(nc1=Nc1ccc(Cl)cc1)sc1cc(Cl)ccc12` the GI50 [1] was 3.22 µM, the GI50 [2] was 6.35 µM and 14.8 µM and the TGI [2] was greater than 100 µM. For the same molecule, the GI50 [3] was 6.18 µM, the TGI [3] was greater than 100 µM and the GI50 [4] was 4.69 µM. The TGI [4] was 34.8 µM, the GI50 [5] was 4.08 µM and the TGI [5] was greater than 100 µM. The GI50 [6] was 15 µM, the TGI [6] was greater than 100 µM and the GI50 [7] was greater than 100 µM. For the same molecule, the TGI [7] was greater than 100 µM, the GI50 [8] was 13.5 µM and the TGI [8] was greater than 100 µM. The GI50 [9] was greater than 100 µM, the TGI [9] was greater than 100 µM and the GI50 [10] was 5.67 µM and 3.77 µM. For the same molecule, the TGI [10] was greater than 100 µM.
In the case of `O=[N+]([O-])c1ccc(C2=Nn3c(nnc3-c3ccc(Cl)cc3)SC2)o1`, the TGI [1] is reported as 27.6 µM, the TGI [2] is reported as 12.4 µM and the TGI [3] is reported as 4.39 µM. The TGI [4] was 45.1 µM, the TGI [5] was 30.2 µM and the TGI [6] was 29.7 µM. It also gave a TGI [7] of 12.9 µM, a TGI [8] of 12.2 µM and a TGI [9] of 29.9 µM. The TGI [10] was 11.1 µM.
`O=C(O)C(C(=O)O)P(=S)(S)c1ccccc1` (configuration not stated) gave a TGI [1] greater than 100 µM, a TGI [2] greater than 100 µM and a TGI [3] greater than 100 µM. For the same molecule, the TGI [4] was greater than 100 µM, the TGI [5] was greater than 100 µM and the TGI [6] was greater than 100 µM. It also gave a TGI [7] greater than 100 µM, a TGI [8] greater than 100 µM and a TGI [9] greater than 100 µM. It also gave a TGI [10] greater than 100 µM.
For `C[C@@H](NC(=O)/C(C#N)=C/c1ccc([N+](=O)[O-])cc1)c1ccccc1`, the GI50 [1] was 2.07 µM, the TGI [1] was 4.18 µM and the GI50 [2] was 2.92 µM. It also gave a TGI [2] of 8.31 µM, a GI50 [3] of 2.7 µM and a TGI [3] of 7.63 µM. It also gave a GI50 [4] of 3.19 µM, a TGI [4] of 13.3 µM and a GI50 [5] of 3.69 µM. For the same molecule, the TGI [5] was 13.4 µM, the GI50 [6] was 5.07 µM and the TGI [6] was 12.1 µM. For the same molecule, the GI50 [7] was 5.53 µM, the TGI [7] was 26.4 µM and the GI50 [8] was 1.94 µM. For the same molecule, the TGI [8] was 4.64 µM, the GI50 [9] was 2.52 µM and the TGI [9] was 7.31 µM. For the same molecule, the GI50 [10] was 4.85 µM and the TGI [10] was 10.2 µM.
For `O=C1NC2C(=CC(O)C(O)C2O)c2cc3c(cc21)OCO3` (configuration not stated), the GI50 [1] was 0.336 µM and 0.129 µM, the TGI [1] was 1.75 µM and 3.53 µM and the GI50 [2] was 0.426 µM and 0.193 µM. For the same molecule, the TGI [2] was 1.29 µM and 1.86 µM, the TGI [3] was 0.965 µM and the GI50 [4] was 0.152 µM. For the same molecule, the TGI [4] was 0.561 µM and 3.38 µM, the GI50 [5] was 0.354 µM and 0.337 µM and the TGI [5] was 3.37 µM and 3.58 µM. It also gave a GI50 [6] of 0.917 µM, a TGI [6] of 4.11 µM and a TGI [7] of 1.5 µM. The GI50 [8] was 0.115 µM, the TGI [8] was 0.67 µM and 1.53 µM and the GI50 [9] was 0.296 µM and 0.111 µM. The TGI [9] was 0.832 µM and 2.12 µM, the GI50 [10] was 0.273 µM and the TGI [10] was 3.58 µM and 5.95 µM.
For `CN(C)CCCCC(C(=O)CBr)(c1ccccc1)c1ccccc1`, the GI50 [1] was 7.57 µM, the TGI [1] was 20.7 µM and the GI50 [2] was 1.44 µM. It also gave a TGI [2] of 3.62 µM, a GI50 [3] of 2.45 µM and a TGI [3] of 10.5 µM. It also gave a GI50 [4] of 2.85 µM, a TGI [4] of 10.1 µM and a GI50 [5] of 3.89 µM. The TGI [5] was 15.8 µM, the GI50 [6] was 1.5 µM and the TGI [6] was 3.01 µM. For the same molecule, the GI50 [7] was 1.14 µM, the TGI [7] was 3.71 µM and the GI50 [8] was 1.44 µM. The TGI [8] was 2.99 µM, the GI50 [9] was 7.43 µM and the TGI [9] was 23.9 µM. The GI50 [10] was 1.92 µM and the TGI [10] was 3.94 µM.
Molecule `C=C1C(=O)O[C@H]2[C@H]1CC/C(C=Nc1c(N)cc(C(F)(F)F)cc1C(F)(F)F)=C\CC[C@@]1(C)O[C@@H]21` has a GI50 [1] of 1.99 µM, a TGI [1] of 4.74 µM and a GI50 [2] of 2 µM. It also gave a TGI [2] of 3.95 µM, a GI50 [3] of 2.03 µM and a TGI [3] of 6.05 µM. It also gave a GI50 [4] of 2 µM, a TGI [4] of 5.75 µM and a GI50 [5] of 1.55 µM. It also gave a TGI [5] of 3.82 µM, a GI50 [6] of 1.38 µM and a TGI [6] of 2.69 µM. The GI50 [7] was 0.55 µM, the TGI [7] was 2.64 µM and the GI50 [8] was 1.07 µM. For the same molecule, the TGI [8] was 2.3 µM, the GI50 [9] was 1.93 µM and the TGI [9] was 4.98 µM. The GI50 [10] was 1.13 µM and the TGI [10] was 3.1 µM.
